Measurements: patent US12227500B2, “Substituted pyrrolo[2,3-b]pyridines for suppressing toxic endoplasmic reticulum stress” (THE TRUSTEES OF COLUMBIA UNIVERSITY IN THE CITY OF NEW YORK, priority 2018, dated 2025)
Like-named read-outs stand apart in the source and are kept apart here.

Columns and labels:
Test in all cases: Radiolabeled ATP kinase assay, panel of 371 kinases (Table S6)
Assay type in all cases: biochemical
[1] = target: T1, panel of 371 human kinases (Homo sapiens, UniProt Q9UKE5); conditions: TNIK; 0.1 μM; 10 μM ATP; read-out: % Enzyme Activity (relative to DMSO controls)
T1 construct: purchased Reaction Biology Corp
Excerpt: (§1) ; FIG. 38C). […]. Further targeted analyses, such as genetic knock-down or knock-out, may be warranted to parse the role of these additional kinases in our model of neurodegeneration.

[2] = target: T2, panel of 371 human kinases (Homo sapiens, UniProt Q13233); conditions: MEKK1; 0.1 μM; 10 μM ATP; read-out: % Enzyme Activity (relative to DMSO controls)
T2 construct: purchased Reaction Biology Corp
Excerpt: as §1

[3] = target: T3, panel of 371 human kinases (Homo sapiens, UniProt O15075); conditions: DCAMKL1; 0.1 μM; 10 μM ATP; read-out: % Enzyme Activity (relative to DMSO controls)
T3 construct: purchased Reaction Biology Corp
Excerpt: as §1

[4] = target: T4, panel of 371 human kinases (Homo sapiens, UniProt P27361); conditions: ERK1; 0.1 μM; 10 μM ATP; read-out: % Enzyme Activity (relative to DMSO controls)
T4 construct: purchased Reaction Biology Corp
Excerpt: as §1

[5] = target: T5, panel of 371 human kinases (Homo sapiens, UniProt O96017); conditions: CHK2; 0.1 μM; 10 μM ATP; read-out: % Enzyme Activity (relative to DMSO controls)
T5 construct: purchased Reaction Biology Corp
Excerpt: as §1

[6] = target: T6, panel of 371 human kinases (Homo sapiens, UniProt Q9P286); conditions: PAK5; 0.1 μM; 10 μM ATP; read-out: % Enzyme Activity (relative to DMSO controls)
T6 construct: purchased Reaction Biology Corp
Excerpt: as §1

[7] = target: T7, panel of 371 human kinases (Homo sapiens, UniProt O94804); conditions: LOK/STK10; 0.1 μM; 10 μM ATP; read-out: % Enzyme Activity (relative to DMSO controls)
T7 construct: purchased Reaction Biology Corp
Excerpt: as §1

[8] = target: T8, panel of 371 human kinases (Homo sapiens, UniProt Q9HC98); conditions: NEK6; 0.1 μM; 10 μM ATP; read-out: % Enzyme Activity (relative to DMSO controls)
T8 construct: purchased Reaction Biology Corp
T8 sequence (Q9HC98 whole entry): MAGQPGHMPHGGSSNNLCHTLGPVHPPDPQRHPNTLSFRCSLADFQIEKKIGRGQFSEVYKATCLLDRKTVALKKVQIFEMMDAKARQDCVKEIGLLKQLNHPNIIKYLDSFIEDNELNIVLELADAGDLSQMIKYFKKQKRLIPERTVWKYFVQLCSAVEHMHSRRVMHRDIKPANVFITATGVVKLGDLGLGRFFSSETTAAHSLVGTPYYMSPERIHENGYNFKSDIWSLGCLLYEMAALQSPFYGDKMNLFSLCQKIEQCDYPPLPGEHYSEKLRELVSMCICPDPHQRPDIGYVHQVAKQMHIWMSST
Excerpt: as §1

[9] = target: T9, panel of 371 human kinases (Homo sapiens, UniProt O95819); conditions: for remaining activity at 0.1 µM: HGK/MAP4K4, 10 μM ATP, read-out: % Enzyme Activity (relative to DMSO controls)
T9 construct: purchased Reaction Biology Corp
T9 sequence (O95819 whole entry): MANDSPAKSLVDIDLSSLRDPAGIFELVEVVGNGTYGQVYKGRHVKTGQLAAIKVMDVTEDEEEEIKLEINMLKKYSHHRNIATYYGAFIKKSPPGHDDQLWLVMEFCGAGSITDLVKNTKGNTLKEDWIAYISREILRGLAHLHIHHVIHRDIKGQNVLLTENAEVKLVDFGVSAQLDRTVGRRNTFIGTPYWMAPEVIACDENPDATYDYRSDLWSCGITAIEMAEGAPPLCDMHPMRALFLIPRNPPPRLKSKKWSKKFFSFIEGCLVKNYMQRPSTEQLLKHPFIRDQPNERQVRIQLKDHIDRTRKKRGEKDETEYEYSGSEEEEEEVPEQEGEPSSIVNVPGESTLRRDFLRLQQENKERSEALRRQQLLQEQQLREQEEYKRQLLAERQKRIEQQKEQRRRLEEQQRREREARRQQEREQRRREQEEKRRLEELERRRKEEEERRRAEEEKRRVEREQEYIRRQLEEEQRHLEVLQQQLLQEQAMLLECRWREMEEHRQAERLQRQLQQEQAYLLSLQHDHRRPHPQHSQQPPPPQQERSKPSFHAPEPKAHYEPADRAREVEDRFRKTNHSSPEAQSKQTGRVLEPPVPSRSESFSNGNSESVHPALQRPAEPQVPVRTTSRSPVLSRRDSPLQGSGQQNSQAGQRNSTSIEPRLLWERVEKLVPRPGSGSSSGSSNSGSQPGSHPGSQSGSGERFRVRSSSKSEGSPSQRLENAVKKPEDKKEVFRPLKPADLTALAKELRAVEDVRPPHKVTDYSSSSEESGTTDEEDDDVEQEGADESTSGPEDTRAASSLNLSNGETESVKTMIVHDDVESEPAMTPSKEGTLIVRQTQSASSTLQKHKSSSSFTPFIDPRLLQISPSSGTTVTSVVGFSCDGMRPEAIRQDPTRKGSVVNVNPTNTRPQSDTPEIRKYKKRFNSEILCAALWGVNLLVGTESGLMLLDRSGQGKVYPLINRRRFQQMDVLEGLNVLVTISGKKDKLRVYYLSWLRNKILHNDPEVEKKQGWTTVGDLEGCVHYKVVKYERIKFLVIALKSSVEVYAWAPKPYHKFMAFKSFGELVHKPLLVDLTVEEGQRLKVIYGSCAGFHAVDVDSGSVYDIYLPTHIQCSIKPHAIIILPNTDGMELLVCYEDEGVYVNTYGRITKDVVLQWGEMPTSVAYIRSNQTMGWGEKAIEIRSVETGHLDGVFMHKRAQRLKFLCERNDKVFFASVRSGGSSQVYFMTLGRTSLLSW
Excerpt: as §1

[10] = target: T10, panel of 371 human kinases (Homo sapiens, UniProt P07947); conditions: YES/YES1; 0.1 μM; 10 μM ATP; read-out: % Enzyme Activity (relative to DMSO controls)
T10 construct: purchased Reaction Biology Corp
Excerpt: as §1

[11] = target: T11, panel of 371 human kinases (Homo sapiens, UniProt Q07002); conditions: CDK18/cyclin Y (PCTK3); 0.1 μM; 10 μM ATP; read-out: % Enzyme Activity (relative to DMSO controls)
T11 construct: purchased Reaction Biology Corp
T11 sequence (Q07002 whole entry): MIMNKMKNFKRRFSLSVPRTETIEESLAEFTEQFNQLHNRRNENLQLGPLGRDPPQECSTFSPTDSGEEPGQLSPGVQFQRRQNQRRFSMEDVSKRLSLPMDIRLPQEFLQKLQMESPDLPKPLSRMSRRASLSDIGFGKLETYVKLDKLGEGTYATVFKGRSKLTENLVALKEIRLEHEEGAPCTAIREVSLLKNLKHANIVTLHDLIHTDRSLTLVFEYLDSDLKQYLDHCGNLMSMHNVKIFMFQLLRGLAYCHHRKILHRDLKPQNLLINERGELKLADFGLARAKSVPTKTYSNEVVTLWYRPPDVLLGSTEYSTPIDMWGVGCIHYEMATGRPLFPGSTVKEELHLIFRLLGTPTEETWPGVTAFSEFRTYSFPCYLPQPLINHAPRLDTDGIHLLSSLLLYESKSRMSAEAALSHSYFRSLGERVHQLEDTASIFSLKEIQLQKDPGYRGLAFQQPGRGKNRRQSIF
Excerpt: as §1

[12] = target: T12, panel of 371 human kinases (Homo sapiens, UniProt O14578); conditions: STK21/CIT; 0.1 μM; 10 μM ATP; read-out: % Enzyme Activity (relative to DMSO controls)
T12 construct: purchased Reaction Biology Corp
Excerpt: as §1

[13] = target: T13, panel of 371 human kinases (Homo sapiens, UniProt Q9Y572); conditions: RIPK3; 0.1 μM; 10 μM ATP; read-out: % Enzyme Activity (relative to DMSO controls)
T13 construct: purchased Reaction Biology Corp
Excerpt: as §1

[14] = target: T14, panel of 371 human kinases (Homo sapiens, UniProt Q9H0K1); conditions: SIK2; 0.1 μM; 10 μM ATP; read-out: % Enzyme Activity (relative to DMSO controls)
T14 construct: purchased Reaction Biology Corp
T14 sequence (Q9H0K1 whole entry): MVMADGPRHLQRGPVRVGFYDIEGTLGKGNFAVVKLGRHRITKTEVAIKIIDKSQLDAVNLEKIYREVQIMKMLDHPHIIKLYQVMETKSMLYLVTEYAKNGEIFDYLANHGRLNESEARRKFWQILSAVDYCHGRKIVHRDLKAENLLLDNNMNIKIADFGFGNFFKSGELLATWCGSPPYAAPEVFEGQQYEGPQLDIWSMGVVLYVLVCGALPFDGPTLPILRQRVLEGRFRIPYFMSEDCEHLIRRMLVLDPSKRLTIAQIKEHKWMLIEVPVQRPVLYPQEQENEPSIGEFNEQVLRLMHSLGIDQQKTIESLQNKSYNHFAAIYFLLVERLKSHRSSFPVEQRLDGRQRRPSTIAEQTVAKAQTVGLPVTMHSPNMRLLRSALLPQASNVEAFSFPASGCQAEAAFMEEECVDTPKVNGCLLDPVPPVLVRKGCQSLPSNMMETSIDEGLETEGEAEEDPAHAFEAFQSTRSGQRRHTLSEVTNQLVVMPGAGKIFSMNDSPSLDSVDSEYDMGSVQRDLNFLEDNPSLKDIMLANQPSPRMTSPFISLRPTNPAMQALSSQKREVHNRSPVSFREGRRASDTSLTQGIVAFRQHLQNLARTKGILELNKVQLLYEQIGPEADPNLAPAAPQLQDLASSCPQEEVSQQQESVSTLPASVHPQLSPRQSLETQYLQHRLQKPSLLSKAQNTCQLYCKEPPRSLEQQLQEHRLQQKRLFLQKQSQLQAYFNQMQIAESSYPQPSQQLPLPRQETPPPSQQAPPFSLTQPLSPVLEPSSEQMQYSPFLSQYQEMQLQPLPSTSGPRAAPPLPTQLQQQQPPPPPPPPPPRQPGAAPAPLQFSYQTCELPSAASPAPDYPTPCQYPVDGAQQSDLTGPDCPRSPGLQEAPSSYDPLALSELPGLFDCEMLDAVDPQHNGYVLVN
Excerpt: as §1

[15] = target: T15, panel of 371 human kinases (Homo sapiens, UniProt P08069); conditions: IGF1R; 0.1 μM; 10 μM ATP; read-out: % Enzyme Activity (relative to DMSO controls)
T15 construct: purchased Reaction Biology Corp
T15 sequence (P08069 31-1367): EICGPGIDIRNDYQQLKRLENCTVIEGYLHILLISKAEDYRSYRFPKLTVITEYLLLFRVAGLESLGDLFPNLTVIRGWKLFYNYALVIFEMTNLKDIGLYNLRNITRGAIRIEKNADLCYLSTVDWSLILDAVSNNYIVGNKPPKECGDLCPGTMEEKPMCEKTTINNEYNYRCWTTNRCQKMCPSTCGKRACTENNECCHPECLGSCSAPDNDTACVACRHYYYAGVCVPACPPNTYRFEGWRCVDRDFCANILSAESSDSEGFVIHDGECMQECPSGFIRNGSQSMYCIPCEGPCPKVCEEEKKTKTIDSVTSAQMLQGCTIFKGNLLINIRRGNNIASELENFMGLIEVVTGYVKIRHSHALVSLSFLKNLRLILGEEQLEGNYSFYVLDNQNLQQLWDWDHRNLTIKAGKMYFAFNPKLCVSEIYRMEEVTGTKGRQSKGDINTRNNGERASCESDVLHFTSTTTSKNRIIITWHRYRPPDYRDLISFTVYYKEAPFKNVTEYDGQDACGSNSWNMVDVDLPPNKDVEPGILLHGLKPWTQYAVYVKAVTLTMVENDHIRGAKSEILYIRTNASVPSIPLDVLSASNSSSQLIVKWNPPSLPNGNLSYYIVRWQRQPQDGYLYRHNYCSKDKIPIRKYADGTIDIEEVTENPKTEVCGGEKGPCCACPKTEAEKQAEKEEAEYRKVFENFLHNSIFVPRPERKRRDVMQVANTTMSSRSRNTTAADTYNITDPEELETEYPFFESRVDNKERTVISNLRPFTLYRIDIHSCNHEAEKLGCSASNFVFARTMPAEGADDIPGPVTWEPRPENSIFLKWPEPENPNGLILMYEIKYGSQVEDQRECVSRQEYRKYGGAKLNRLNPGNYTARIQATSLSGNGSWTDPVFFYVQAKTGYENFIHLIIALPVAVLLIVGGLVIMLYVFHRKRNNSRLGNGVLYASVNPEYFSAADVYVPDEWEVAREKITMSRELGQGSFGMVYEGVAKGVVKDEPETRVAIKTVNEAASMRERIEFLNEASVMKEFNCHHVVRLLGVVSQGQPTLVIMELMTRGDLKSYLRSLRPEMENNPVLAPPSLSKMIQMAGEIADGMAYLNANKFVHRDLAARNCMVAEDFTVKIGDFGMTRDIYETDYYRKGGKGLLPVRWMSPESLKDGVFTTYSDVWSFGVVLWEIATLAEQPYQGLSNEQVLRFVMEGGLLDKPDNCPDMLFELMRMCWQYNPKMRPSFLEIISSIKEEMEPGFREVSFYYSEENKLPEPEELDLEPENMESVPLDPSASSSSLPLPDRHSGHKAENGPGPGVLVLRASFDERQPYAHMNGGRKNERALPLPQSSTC
Excerpt: as §1

[16] = target: T16, panel of 371 human kinases (Homo sapiens, UniProt P43250); conditions: GRK6; 0.1 μM; 10 μM ATP; read-out: % Enzyme Activity (relative to DMSO controls)
T16 construct: purchased Reaction Biology Corp
Excerpt: as §1

[17] = target: T17, panel of 371 human kinases (Homo sapiens, UniProt Q9P289); conditions: MST4; 0.1 μM; 10 μM ATP; read-out: % Enzyme Activity (relative to DMSO controls)
T17 construct: purchased Reaction Biology Corp
Excerpt: as §1

[18] = target: T18, panel of 371 human kinases (Homo sapiens, UniProt O43293); conditions: ZIPK/DAPK3; 0.1 μM; 10 μM ATP; read-out: % Enzyme Activity (relative to DMSO controls)
T18 construct: purchased Reaction Biology Corp
T18 sequence (O43293 whole entry): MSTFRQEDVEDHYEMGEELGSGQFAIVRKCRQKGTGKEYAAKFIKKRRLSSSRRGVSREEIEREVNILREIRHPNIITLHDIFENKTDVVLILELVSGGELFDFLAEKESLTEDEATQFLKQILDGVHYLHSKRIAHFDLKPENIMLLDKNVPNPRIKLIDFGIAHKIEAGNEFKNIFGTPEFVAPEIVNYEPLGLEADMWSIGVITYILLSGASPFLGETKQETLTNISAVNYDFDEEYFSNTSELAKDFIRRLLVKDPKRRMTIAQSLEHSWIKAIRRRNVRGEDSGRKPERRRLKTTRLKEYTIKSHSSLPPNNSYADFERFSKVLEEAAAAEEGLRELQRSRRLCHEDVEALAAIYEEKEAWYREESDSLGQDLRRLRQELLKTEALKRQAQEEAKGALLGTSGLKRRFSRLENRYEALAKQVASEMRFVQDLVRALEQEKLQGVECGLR
Excerpt: as §1

[19] = target: T19, panel of 371 human kinases (Homo sapiens, UniProt P49674); conditions: CK1epsilon; 0.1 μM; 10 μM ATP; read-out: % Enzyme Activity (relative to DMSO controls)
T19 construct: purchased Reaction Biology Corp
Excerpt: as §1

[20] = target: T20, panel of 371 human kinases (Homo sapiens, UniProt Q15139); conditions: PKCmu/PRKD1; 0.1 μM; 10 μM ATP; read-out: % Enzyme Activity (relative to DMSO controls)
T20 construct: purchased Reaction Biology Corp
Excerpt: as §1

[21] = target: T21, panel of 371 human kinases (Homo sapiens, UniProt P07332); conditions: FES/FPS; 0.1 μM; 10 μM ATP; read-out: % Enzyme Activity (relative to DMSO controls)
T21 construct: purchased Reaction Biology Corp
Excerpt: as §1

[22] = target: T22, panel of 371 human kinases (Homo sapiens, UniProt Q00535); conditions: 0.1 μM, 10 μM ATP, read-out: % Enzyme Activity (relative to DMSO controls)
T22 construct: purchased Reaction Biology Corp
T22 sequence (Q00535 whole entry): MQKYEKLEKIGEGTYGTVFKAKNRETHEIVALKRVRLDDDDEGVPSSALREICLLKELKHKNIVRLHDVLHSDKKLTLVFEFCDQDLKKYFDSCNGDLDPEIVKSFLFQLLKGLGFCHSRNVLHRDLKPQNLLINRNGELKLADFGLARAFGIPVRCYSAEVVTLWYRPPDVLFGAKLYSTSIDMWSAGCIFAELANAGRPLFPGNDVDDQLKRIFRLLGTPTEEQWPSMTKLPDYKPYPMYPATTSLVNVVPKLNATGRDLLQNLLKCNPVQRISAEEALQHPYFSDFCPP
Excerpt: as §1

[23] = target: T23, panel of 371 human kinases (Homo sapiens, UniProt P41279); conditions: COT1/MAP3K8; 0.1 μM; 10 μM ATP; read-out: % Enzyme Activity (relative to DMSO controls)
T23 construct: purchased Reaction Biology Corp
Excerpt: as §1

[24] = target: T24, panel of 371 human kinases (Homo sapiens, UniProt P52564); conditions: MKK6; 0.1 μM; 10 μM ATP; read-out: % Enzyme Activity (relative to DMSO controls)
T24 construct: purchased Reaction Biology Corp
Excerpt: as §1

Compound | remaining activity at 0.1 µM [1] | remaining activity at 0.1 µM [2] | remaining activity at 0.1 µM [3] | remaining activity at 0.1 µM [4] | remaining activity at 0.1 µM [5] | remaining activity at 0.1 µM [6] | remaining activity at 0.1 µM [7] | remaining activity at 0.1 µM [8] | remaining activity at 0.1 µM [9] | remaining activity at 0.1 µM [10] | remaining activity at 0.1 µM [11] | remaining activity at 0.1 µM [12] | remaining activity at 0.1 µM [13] | remaining activity at 0.1 µM [14] | remaining activity at 0.1 µM [15] | remaining activity at 0.1 µM [16] | remaining activity at 0.1 µM [17] | remaining activity at 0.1 µM [18] | remaining activity at 0.1 µM [19] | remaining activity at 0.1 µM [20] | other results
CN1CCN(Cc2ccc(-c3cnc4[nH]cc(-c5ccc6[nH]ccc6c5)c4c3)cc2)CC1 [Compound 1, 3-(1H-Indol-5-yl)-5-(4-((4-methylpiperazin-1-yl)methyl)phenyl)-1H-pyrrolo[2,3-b]pyridine, reference compound] | 5.84% | 102% | 97.2% | 86% | 85.2% | 113% | 73.2% | 92.7% | 20.2% | 96.6% | 90.3% | 103% | 100% | 83.2% | 95.4% | 91.5% | 73% | 108% | 117% | 24.4% | remaining activity at 0.1 µM [21]: 68.2%; remaining activity at 0.1 µM ([22]; CDK5/p25): 79.7%; remaining activity at 0.1 µM ([22]; CDK5/p35): 81.3%; remaining activity at 0.1 µM [23]: 101%; remaining activity at 0.1 µM [24]: 116%
OCCN1CCN(Cc2ccc(-c3cnc4[nH]cc(-c5cccc(Cl)c5)c4c3)cc2)CC1 [Compound 12k, 2-(4-(4-(3-(3-Chlorophenyl)-1H-pyrrolo[2,3-b]pyridin-5-yl)benzyl)piperazin-1-yl)ethan-1-ol] | -0.01% | 94% | 94.2% | 92.8% | 93.5% | 99% | 59.1% | 95.1% | 1.35% | 109% | 77.5% | 104% | 99.4% | 59.8% | 95.4% | 95.2% | 73.2% | 99.8% | 103% | 3.95% | fold change in HGK activity following 12k exposure relative to 1 ([9]; 0.025 μM): 14.92 fold; remaining activity at 0.1 µM [21]: 77.9%; remaining activity at 0.1 µM ([22]; CDK5/p25): 75.9%; remaining activity at 0.1 µM ([22]; CDK5/p35): 79.2%; remaining activity at 0.1 µM [23]: 87.5%; remaining activity at 0.1 µM [24]: 97.9%
